Data set [1] can be described thus: Bulk density of the residue. The class given is physicochemical. Conditions: residue after drying. The source says: The solution was then freeze dried (lyophilized), producing a residue with a bulk density of 0.061 gram/cm^3.
The solution was then spray-dried, producing a residue with a bulk density of 0.269 gram/cm^3.

The nature of data set [2]: Retention of amorphous character after pressing (powder X-ray diffraction). The class given is physicochemical. The conditions noted are these: pressed at 10,000 Kg/cm^3 for 1 minute; X-ray diffractogram. The protocol:
X-ray diffraction data were acquired using a PHILIPS X-ray diffractometer model PW1050-70. System description: Kα1=1.54178 Å, voltage 40 kV, current 28 mA, diversion slit=1°, receiving slit=0.2 mm, scattering slit=1° with a Graphite monochromator. Experiment parameters: pattern measured between 2θ=4° and 2θ=30° with 0.05° increments; count time was 0.5 second per increment.
The X-ray analysis of the residue gave a featureless diffractogram with a broad peak centered at 2θ about 22°, showing the residue was amorphous. The residue was pressed at 10,000 Kg/cm^3 for 1 minute.
The residue was then pressed at 10,000 Kg/cm3 for 1 minute.

The values below come from US7544805B2 (Chemagis Ltd., priority 2004, dated 2009).

Molecules are shown by their SMILES.

In the case of `CC(C)(O)c1ccccc1CC[C@@H](SCC1(CC(=O)[O-])CC1)c1cccc(/C=C/c2ccc3ccc(Cl)cc3n2)c1.[Na+]` [Example 1, Amorphous Montelukast Sodium], in data set [1], the bulk density was determined as 0.269 gram/cm^3. Besides, the “amorphous character after pressing” value in data set [2] is on record as “remained amorphous”.

Regarding `CC(C)(O)c1ccccc1CC[C@@H](SCC1(CC(=O)[O-])CC1)c1cccc(/C=C/c2ccc3ccc(Cl)cc3n2)c1.[Na+]` [Reference Example 1, Amorphous Montelukast Sodium, reference compound], in data set [1], the bulk density amounted to 0.061 gram/cm^3.
